Tests used:
Assay type in all cases: in vivo, rat
[1] = system: 12-week-old SD rats; assay: Bone fracture healing promoting effect in rats (simple femur fracture); conditions: carbon dioxide absorption 20 minutes, X-ray
Excerpt: Bone fracture healing promoting effect in rats (using a carbon dioxide external administration device as a means for absorbing a therapeutic agent for bone fracture, a bone growth promoting agent, or a therapeutic or prophylactic agent for bone diseases containing carbon dioxide as an active ingredient)
According to the literature (Kokubo, T et al., J Orthop Res. 2003 May; 21(3): 503-510), a simple fracture was made in a femur of 12-week-old SD rats (n=23). The rats were matched based on their body weight and were divided into two groups (a control group: n=11; a carbon dioxide absorption group: n=12). In the same procedures as Example 1 except for adopting 20 minutes of the carbon dioxide absorption time, carbon dioxide absorption into the fractured limb was conducted. After making a fracture, X-ray images of the femur were taken for 2 rats of each group at the first week, 3 rats of each group at the second week, and 6 rats of the control group and the carbon dioxide absorption group at the third week. After the completion of the test, all rats were euthanized and the femurs were collected from the rats.

[2] = system: 5-Week-old SD rats; assay: Bone growth promoting effect in rats (transdermal carbon dioxide absorption via external administration device)
Excerpt: (§1) Bone growth promoting effect in rats (using a carbon dioxide external administration device as a means for absorbing a therapeutic agent for bone fracture, a bone growth promoting agent, or a therapeutic or prophylactic agent for bone diseases containing carbon dioxide as an active ingredient)
5-Week-old SD rats were used as test animals. A carbon dioxide absorption aid consisting of 93.77% by weight of water, 5% by weight of glycerin, 0.65% by weight of carbomer, 0.15% by weight of sodium alginate, 0.15% by weight of sodium dihydrogen phosphate, 0.18% by weight of sodium hydroxide, 0.10% by weight of methylparaben was applied twice a week to a hair-shaved right lower limb of a rat of the carbon dioxide absorption group (n=6) in a thickness of 2 mm under anesthesia according to the patent document 7. The lower body of the rat was covered to seal with a bag having 4 cm width and 4 cm length and the top of the bag was bound tightly with a rubber band. Then, the bag was filled with 100% concentration of carbon dioxide through a vinyl tube from a carbon dioxide bomb in order to allow carbon dioxide to be absorbed for 10 minutes. The control group (n=3) was subjected to only the anesthetic procedure. The above mentioned procedures were continued for 3 months. After 3 months, the tibias of both legs were collected from all rats and the length of them was measured by X-ray. […]

[3] = system: 5-Week-old Wister rats; assay: Bone growth promoting effect in exercise-loaded rats
Procedure: as §1, with “effect in exercise-loaded rats (using” for “effect in rats (using”
5-Week-old Wister rats were matched based on their body weight and were divided into two groups (a control group: n=8; an exercise-loaded group: n=16). The running training for 30 minutes per day using an activity wheel was given to all rats for five continuous days. The exercise-loaded rats were matched based on the running distance on the fourth and fifth day as well as the body weight on the fifth day and were divided into two groups (a training group: n=8; a carbon dioxide absorption group: n=8). After shaving the lower body hair of all rats, the running training for 30 minutes per day using an activity wheel was given to the training group and the carbon dioxide absorption group. This training was done five times a week for 4 weeks. […] The tibias of both legs were collected from the rats, and then the entire length of the tibias was measured by X-ray. […] An auxotonic gristle plate of the tissue section was stained with Safranine O and its length was measured.

Which results are given for `O=C=O` [carbon dioxide]?
fracture healing at the first and second week ([1]; first and second week): not healed; rats with fracture completely healed at the third week ([1]; third week (control group 1/6)): 6/7; length of the right tibia (ratio of the length between the right tibia and the left tibia) versus control group ([2]; 100% carbon dioxide to right lower limb 10 minutes twice a week for 3 months, X-ray, P<0.05, FIG. 1): statistically significantly longer; number of proliferating cells (PCNA staining of tibia auxotonic gristle area) versus control group ([2]; after 3 months of carbon dioxide absorption, FIG. 2): larger; length of the auxotonic gristle plate versus training group and control group ([3]; 4 weeks, Safranine O staining, FIG. 4): statistically significantly longer; length of tibias versus training group ([3]; running training plus carbon dioxide absorption to both lower limbs 10 minutes, five times a week for 4 weeks, X-ray, P<0.1, FIG. 3): statistically significantly longer

From patent US20140127120A1, “THERAPEUTIC AGENT FOR BONE FRACTURE COMPRISING CARBON DIOXIDE AS AN ACTIVE INGREDIENT” (NEOCHEMIR INC., priority 2011, published 2014)
